Results from US12275731B2, “Azaindole inhibitors of wild-type and mutant forms of LRRK2” (DANA-FARBER CANCER INSTITUTE, INC., priority 2018, dated 2025).

Assays:
Assay in all cases: KinomeScan profiling
Assay type in all cases: binding
TAOK3 = molecular target: T1, TAOK3 (Homo sapiens, UniProt Q9H2K8); details: TAOK3, 1 μM; read-out: % control
T1 sequence (Q9H2K8 1-898): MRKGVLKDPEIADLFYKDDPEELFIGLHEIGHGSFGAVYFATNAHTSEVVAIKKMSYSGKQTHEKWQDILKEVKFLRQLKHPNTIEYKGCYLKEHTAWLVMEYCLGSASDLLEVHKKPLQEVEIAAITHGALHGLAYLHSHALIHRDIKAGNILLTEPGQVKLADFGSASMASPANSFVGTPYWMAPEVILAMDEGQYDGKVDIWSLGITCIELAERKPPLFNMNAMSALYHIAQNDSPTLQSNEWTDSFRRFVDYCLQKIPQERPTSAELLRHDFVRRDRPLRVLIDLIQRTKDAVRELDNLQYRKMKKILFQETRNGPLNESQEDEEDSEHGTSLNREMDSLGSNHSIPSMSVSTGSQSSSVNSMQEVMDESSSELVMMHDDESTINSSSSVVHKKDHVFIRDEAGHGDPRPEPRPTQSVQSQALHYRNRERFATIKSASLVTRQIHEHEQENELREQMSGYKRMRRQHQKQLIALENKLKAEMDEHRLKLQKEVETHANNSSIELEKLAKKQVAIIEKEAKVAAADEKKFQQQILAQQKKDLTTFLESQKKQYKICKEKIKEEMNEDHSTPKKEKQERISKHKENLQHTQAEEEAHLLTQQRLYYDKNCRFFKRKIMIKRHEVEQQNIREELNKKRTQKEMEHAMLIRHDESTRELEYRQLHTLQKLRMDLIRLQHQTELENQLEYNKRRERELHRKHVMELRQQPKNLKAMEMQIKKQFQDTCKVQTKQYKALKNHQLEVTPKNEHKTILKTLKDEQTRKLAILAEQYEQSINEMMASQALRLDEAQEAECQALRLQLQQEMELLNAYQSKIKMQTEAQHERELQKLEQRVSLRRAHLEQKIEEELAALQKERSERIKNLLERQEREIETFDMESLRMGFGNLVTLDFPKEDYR
How it was run: (§1)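 Luminescence (RLU) was converted to percent of control, with DMSO set as 100% and a reference compound as 0%. Test compounds were run at 1 μM against 468 kinases. Kinases showing below 35% of control were scored as bound.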

PIK3CA(E545K) = molecular target: T2, PIK3CA(E545K) (Homo sapiens, UniProt P42336, E545K); details: read-out: % control
T2 construct: purchased KinomeScan® (panel service)
How it was run: as §1

MAP3K15 = molecular target: T3, MAP3K15 (Homo sapiens, UniProt Q6ZN16); details: MAP3K15, 1 μM; read-out: % control
T3 sequence (Q6ZN16 1-1313): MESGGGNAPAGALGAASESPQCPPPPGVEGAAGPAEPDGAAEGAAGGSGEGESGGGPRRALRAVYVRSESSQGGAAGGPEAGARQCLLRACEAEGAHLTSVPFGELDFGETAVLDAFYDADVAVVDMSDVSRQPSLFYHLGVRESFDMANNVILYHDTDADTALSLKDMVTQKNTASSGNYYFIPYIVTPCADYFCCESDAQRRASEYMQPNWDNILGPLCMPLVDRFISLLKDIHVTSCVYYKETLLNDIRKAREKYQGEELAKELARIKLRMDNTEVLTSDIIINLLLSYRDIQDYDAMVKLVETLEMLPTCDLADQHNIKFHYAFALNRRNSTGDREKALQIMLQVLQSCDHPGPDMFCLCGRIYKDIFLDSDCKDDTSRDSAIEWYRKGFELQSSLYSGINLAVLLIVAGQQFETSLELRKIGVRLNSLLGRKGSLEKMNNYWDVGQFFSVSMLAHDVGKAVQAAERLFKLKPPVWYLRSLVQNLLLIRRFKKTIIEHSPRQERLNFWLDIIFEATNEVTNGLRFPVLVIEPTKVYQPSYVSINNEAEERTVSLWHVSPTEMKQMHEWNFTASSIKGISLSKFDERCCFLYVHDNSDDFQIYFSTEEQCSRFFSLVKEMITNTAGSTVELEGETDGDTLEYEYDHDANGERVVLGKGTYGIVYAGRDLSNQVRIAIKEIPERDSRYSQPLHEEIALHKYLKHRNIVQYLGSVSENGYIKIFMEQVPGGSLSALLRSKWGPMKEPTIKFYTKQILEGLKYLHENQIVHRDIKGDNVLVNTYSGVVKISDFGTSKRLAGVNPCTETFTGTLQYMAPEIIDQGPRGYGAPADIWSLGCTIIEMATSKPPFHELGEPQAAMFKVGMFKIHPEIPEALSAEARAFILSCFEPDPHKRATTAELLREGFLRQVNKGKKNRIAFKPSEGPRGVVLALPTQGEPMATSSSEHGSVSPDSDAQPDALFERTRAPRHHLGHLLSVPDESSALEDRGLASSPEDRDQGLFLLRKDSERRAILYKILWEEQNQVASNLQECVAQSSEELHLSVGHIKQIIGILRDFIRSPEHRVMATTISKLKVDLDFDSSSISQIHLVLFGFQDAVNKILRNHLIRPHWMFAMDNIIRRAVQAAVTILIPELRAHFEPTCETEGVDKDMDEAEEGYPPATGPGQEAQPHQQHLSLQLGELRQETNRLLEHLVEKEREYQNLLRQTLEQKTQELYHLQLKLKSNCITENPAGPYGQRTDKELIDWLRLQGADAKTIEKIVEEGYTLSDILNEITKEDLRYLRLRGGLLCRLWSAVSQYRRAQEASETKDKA
How it was run: as §1

T2 sequence (P42336 whole entry E545K): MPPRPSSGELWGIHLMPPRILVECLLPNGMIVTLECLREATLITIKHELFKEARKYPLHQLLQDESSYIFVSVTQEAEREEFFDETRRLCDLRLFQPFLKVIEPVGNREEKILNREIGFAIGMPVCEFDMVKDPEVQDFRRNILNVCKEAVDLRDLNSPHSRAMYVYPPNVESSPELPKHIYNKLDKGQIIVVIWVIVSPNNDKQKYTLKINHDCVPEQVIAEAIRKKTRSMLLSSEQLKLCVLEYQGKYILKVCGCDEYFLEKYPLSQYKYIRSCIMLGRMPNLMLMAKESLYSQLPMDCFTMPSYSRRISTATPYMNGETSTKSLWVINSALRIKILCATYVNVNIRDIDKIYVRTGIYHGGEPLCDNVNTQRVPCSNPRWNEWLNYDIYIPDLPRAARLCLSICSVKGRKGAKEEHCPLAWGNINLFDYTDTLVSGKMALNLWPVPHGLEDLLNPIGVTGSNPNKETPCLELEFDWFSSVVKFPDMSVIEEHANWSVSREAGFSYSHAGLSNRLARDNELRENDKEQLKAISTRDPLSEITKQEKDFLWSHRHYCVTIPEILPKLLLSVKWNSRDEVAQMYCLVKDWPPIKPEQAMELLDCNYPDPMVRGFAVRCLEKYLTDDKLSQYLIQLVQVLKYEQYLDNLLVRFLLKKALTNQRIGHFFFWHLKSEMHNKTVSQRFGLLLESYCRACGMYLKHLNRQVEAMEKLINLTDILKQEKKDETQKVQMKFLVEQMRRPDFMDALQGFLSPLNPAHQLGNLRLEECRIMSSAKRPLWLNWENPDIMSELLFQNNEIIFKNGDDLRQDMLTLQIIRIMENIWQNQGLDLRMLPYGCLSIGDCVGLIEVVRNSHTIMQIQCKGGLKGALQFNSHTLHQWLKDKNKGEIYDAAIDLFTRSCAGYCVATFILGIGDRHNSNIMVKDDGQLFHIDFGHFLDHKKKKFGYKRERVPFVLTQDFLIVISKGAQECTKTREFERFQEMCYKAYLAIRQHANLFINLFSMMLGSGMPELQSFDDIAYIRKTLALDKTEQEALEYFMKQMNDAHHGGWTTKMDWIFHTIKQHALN

SMILES | remaining binding at 1 µM (TAOK3) | remaining binding at 1 µM (PIK3CA(E545K)) | remaining binding at 1 µM (MAP3K15)
CNc1c(-c2cnn([C@H]3CCN(C(C)=O)C[C@@H]3F)c2)cnc2[nH]cc(Cl)c12 [Compound 77, 1-((3S,4S)-4-(4-(3-chloro-4-(methylamino)-1H-pyrrolo[2,3-b]pyridin-5-yl)-1H-pyrazol-1-yl)-3-fluoropiperidin-1-yl)ethan-1-one] | 95% | 18% | 1.4%
CNc1c(-c2ccc(C(=O)N3CCC(N4CCOCC4)CC3)cc2)cnc2[nH]cc(Cl)c12 [Compound 96, (4-(3-chloro-4-(methylamino)-1H-pyrrolo[2,3-b]pyridin-5-yl)phenyl)(4-morpholinopiperidin-1-yl)methanone] | 91% | 31% | 1.8%
O=C(c1ccc(-c2cnc3[nH]cc(Cl)c3c2NC2CCCC2)cc1)N1CCC(N2CCOCC2)CC1 [Compound 101, (4-(3-chloro-4-(cyclopentylamino)-1H-pyrrolo[2,3-b]pyridin-5-yl)phenyl)(4-morpholinopiperidin-1-yl)methanone] | 88% | 79% | 100%
